Experimental findings from article PMC4351869 (Journal of neuro-oncology, 2011) are described below.

Data set [1] deals with recurrent glioblastoma. Briefly: Phase II trial NABTC 03-02, progression free survival. The format is in vivo, patients. The note with it: 2000 mg i.v. twice weekly after resection.
Data set [2] in a line: Treatment-related toxicity in the phase II trial. The format is in vivo, patients.
Data set [3] can be described thus: clinical. The settings on record: human, in vivo, iv.
Data set [4] in a line: Tumor tissue concentrations of cilengitide at resection, HPLC-MS/MS. The format is in vivo, patients. The settings on record: human, iv.

Take `CC(C)[C@H]1C(=O)N[C@@H](CCCNC(=N)N)C(=O)NCC(=O)N[C@@H](CC(=O)O)C(=O)N[C@H](Cc2ccccc2)C(=O)N1C` [Cilengitide]: in data set [1] (26 patients evaluable for efficacy), the “6-month PFS rate” value stood at 12%. For the same compound, the “median PFS” value in data set [1] (Kaplan-Meier, 95% confidence interval 4–16 weeks) was found to be 8 weeks. Besides, in data set [2] (30 patients, 500 or 2000 mg before surgery, 2000 mg i.v. twice weekly after), the tolerability result was “very well tolerated”. In data set [2] (in vivo), the “dose reductions for toxicity” value is given as “no dose reductions for toxicity”. Besides, the treatment related deaths result in data set [2] (in vivo) is given as “no treatment related deaths”. In addition, in data set [2] (mainly lymphopenia, likely related to prior cytotoxic chemotherapy), the “number of grade 3–4 toxicities” value came out at 9. In addition, the level at 24 h in data set [3] (500 mg) came to 333 ng/mL; in data set [3] (2000 mg) it was 386 ng/mL. Also, the tissue level at time at 24 h in data set [4] (500 mg) is 919 ng/g; in data set [4] (2000 mg), 1410 ng/g.
